Log Kd data for one compound are collected here from ChEMBL document CHEMBL1135481, “SMall Molecule Growth 2001 (SMoG2001): an improved knowledge-based scoring function for protein-ligand interactions” (J Med Chem, 2002).

SMILES strings stand for the structures.

The experiment addresses Prothrombin (Homo sapiens) (UniProt P00734). Put plainly: Binding affinity against thrombin.

Compound `NC(N)=NCCC[C@H](NC(=O)[C@@H]1CCCN1C(=O)C(N)Cc1ccccc1)C(=O)O` (stereo in doubt) gave a Log Kd of -6.24.
